Measured values from US9513294B2, “Megastokes amino-triazolyl-BODIPY compounds and applications to live neuron staining and human serum albumin FA1 drug site probing” (National University of Singapore, priority 2012, dated 2016).
Blank lines part the entries; values can stand above or below the molecule they belong to.

Columns and labels:
[1] = Quantum yield measurements versus Acridine Yellow in EtOH; assay type: physicochemical; conditions: for φ (quantum yield): excitation 460 nm; for φ (%): quantum yield
Outline: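 Fluorescence quantum yield is relative to Acridine Yellow in EtOH (Φ 0.47), with excitation at 460 nm. Integrated emission at 510–700 nm was corrected for absorbance at the excitation wavelength and for solvent refractive index.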

[2] = Absorbance and fluorescence emission spectra (SpectraMax M2); assay type: physicochemical; conditions: for λmax Absorp. (nm) / λmax Emission (nm): MKCA compound library
Outline: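 Absorbance and emission maxima measured on a SpectraMax M2 spectrophotometer, which also gave quantum yield data; analysis in GraphPrism.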

SMILES: COc1ccc(OC)c(CNC2=[N+]3C(=C(c4ccc(N)cc4)c4ccc(-n5cc(CN(C)Cc6ccccc6)nn5)n4[B-]3(F)F)C=C2)c1 [MK181-18]
- φ (quantum yield) ([1]; MK library, Table 5): 0.52%
- λmax Absorp. ([2]; MK library, Table 5): 473 nm
- λmax Emission ([2]; MK library, Table 5): 563 nm

SMILES: CCc1ccc(-c2cn(-c3ccc4n3[B-](F)(F)[N+]3=C(N5CCCCC5)C=CC3=C4c3ccc(N)cc3)nn2)cc1 [BDC-46]
- φ (quantum yield) ([1]; BDC library, Table 2): 0.10%
- λmax Absorp. ([2]; BDC library, Table 2): 473 nm
- λmax Emission ([2]; BDC library, Table 2): 585 nm

SMILES: CCCc1cn(-c2ccc3n2[B-](F)(F)[N+]2=C(NCc4cc(OC)ccc4OC)C=CC2=C3c2ccc(N)cc2)nn1 [MK181-48]
- φ (quantum yield) ([1]; MK library, Table 5): 0.50%
- λmax Absorp. ([2]; MK library, Table 5): 473 nm
- λmax Emission ([2]; MK library, Table 5): 563 nm

SMILES: CCCC(C)c1cn(-c2ccc3n2[B-](F)(F)[N+]2=C(N4CCCCC4)C=CC2=C3c2ccc(N)cc2)nn1 (stereo not drawn) [BDC-3]
- φ (quantum yield) ([1]; BDC library, Table 2): 0.37%
- λmax Absorp. ([2]; BDC library, Table 2): 475 nm
- λmax Emission ([2]; BDC library, Table 2): 567 nm

SMILES: CCCCCC(O)c1cn(-c2ccc3n2[B-](F)(F)[N+]2=C(N4CCCCC4)C=CC2=C3c2ccc(NC(C)=O)cc2)nn1 (racemic) [BDCAC-69]
- φ (quantum yield) ([1]; BDCAC library, Table 3): 0.8%
- λmax Absorp. ([2]; BDCAC library, Table 3): 468 nm
- λmax Emission ([2]; BDCAC library, Table 3): 587 nm

SMILES: CC(=O)Nc1ccc(C2=C3C=CC(N4CCCCC4)=[N+]3[B-](F)(F)n3c2ccc3-n2cc(-c3ccc(N(C)C)cc3)nn2)cc1 [BDCAC-13]
- φ (quantum yield) ([1]; BDCAC library, Table 3): 0.1%
- λmax Absorp. ([2]; BDCAC library, Table 3): 467 nm
- λmax Emission ([2]; BDCAC library, Table 3): 619 nm

SMILES: CC(=O)Nc1ccc(C2=C3C=CC(N4CCCCC4)=[N+]3[B-](F)(F)n3c2ccc3-n2cc(CC3CCCC3)nn2)cc1 [BDCAC-7]
- φ (quantum yield) ([1]; BDCAC library, Table 3): 1.3%
- λmax Absorp. ([2]; BDCAC library, Table 3): 467 nm
- λmax Emission ([2]; BDCAC library, Table 3): 585 nm

SMILES: CN(Cc1ccccc1)C1=[N+]2C(=C(c3ccc(N)cc3)c3ccc(-n4cc(CCc5ccccc5)nn4)n3[B-]2(F)F)C=C1 [MK195-19]
- φ (quantum yield) ([1]; MK library, Table 5): 0.27%
- λmax Absorp. ([2]; MK library, Table 5): 477 nm
- λmax Emission ([2]; MK library, Table 5): 582 nm

SMILES: CC(=O)Nc1ccc(C2=C3C=CC(N4CCCCC4)=[N+]3[B-](F)(F)n3c2ccc3-n2cc(-c3ccc(-c4ccccc4)cc3)nn2)cc1 [BDCAC-23]
- φ (quantum yield) ([1]; BDCAC library, Table 3): 1.3%
- λmax Absorp. ([2]; BDCAC library, Table 3): 465 nm
- λmax Emission ([2]; BDCAC library, Table 3): 574 nm

SMILES: CC(=O)Nc1ccc(C2=C3C=CC(N4CCCCC4)=[N+]3[B-](F)(F)n3c2ccc3-n2cc(-c3ccc(F)cc3F)nn2)cc1 [BDCAC-26]
- φ (quantum yield) ([1]; BDCAC library, Table 3): 1.3%
- λmax Absorp. ([2]; BDCAC library, Table 3): 465 nm
- λmax Emission ([2]; BDCAC library, Table 3): 567 nm

SMILES: CCCC(C)c1cn(-c2ccc3n2[B-](F)(F)[N+]2=C(N4CC(C)OC(C)C4)C=CC2=C3c2ccc(N)cc2)nn1 (stereo not drawn) [MK20-3]
- φ (quantum yield) ([1]; MK library, Table 5): 0.10%
- λmax Absorp. ([2]; MK library, Table 5): 476 nm
- λmax Emission ([2]; MK library, Table 5): 573 nm

SMILES: COc1cc(OC)cc(-c2cn(-c3ccc4n3[B-](F)(F)[N+]3=C(N5CCCCC5)C=CC3=C4c3ccc(N)cc3)nn2)c1 [BDC-14]
- φ (quantum yield) ([1]; BDC library, Table 2): 0.18%
- λmax Absorp. ([2]; BDC library, Table 2): 473 nm
- λmax Emission ([2]; BDC library, Table 2): 578 nm

SMILES: O=C(CCl)Nc1ccc(C2=C3C=CC(N4CCCCC4)=[N+]3[B-](F)(F)n3c2ccc3-n2cc(C3=CCCCC3)nn2)cc1 [BDCCA-37]
- φ (quantum yield) ([1]; BDCCA library, Table 4): 1.7%
- λmax Absorp. ([2]; BDCCA library, Table 4): 465 nm
- λmax Emission ([2]; BDCCA library, Table 4): 565 nm

SMILES: Nc1ccc(C2=C3C=CC(N4CCc5ccccc5C4)=[N+]3[B-](F)(F)n3c2ccc3-n2cc(C3CCCC3)nn2)cc1 [MK66-5]
- φ (quantum yield) ([1]; MK library, Table 5): 0.19%
- λmax Absorp. ([2]; MK library, Table 5): 481 nm
- λmax Emission ([2]; MK library, Table 5): 582 nm

SMILES: CN(C)Cc1cn(-c2ccc3n2[B-](F)(F)[N+]2=C(N4CCCCC4)C=CC2=C3c2ccc(NC(=O)CCl)cc2)nn1 [BDCCA-2]
- φ (quantum yield) ([1]; BDCCA library, Table 4): 0.4%
- λmax Absorp. ([2]; BDCCA library, Table 4): 461 nm
- λmax Emission ([2]; BDCCA library, Table 4): 586 nm

SMILES: CCCCCC(O)c1cn(-c2ccc3n2[B-](F)(F)[N+]2=C(N4CCCCC4)C=CC2=C3c2ccc(NC(=O)CCl)cc2)nn1 (racemic) [BDCCA-69]
- φ (quantum yield) ([1]; BDCCA library, Table 4): 0.7%
- λmax Absorp. ([2]; BDCCA library, Table 4): 467 nm
- λmax Emission ([2]; BDCCA library, Table 4): 587 nm

SMILES: CCCCCc1ccc(-c2cn(-c3ccc4n3[B-](F)(F)[N+]3=C(N5CCCCC5)C=CC3=C4c3ccc(NC(C)=O)cc3)nn2)cc1 [BDCAC-29]
- φ (quantum yield) ([1]; BDCAC library, Table 3): 1.6%
- λmax Absorp. ([2]; BDCAC library, Table 3): 465 nm
- λmax Emission ([2]; BDCAC library, Table 3): 561 nm

SMILES: CC(=O)Nc1ccc(C2=C3C=CC(N4CCCCC4)=[N+]3[B-](F)(F)n3c2ccc3-n2cc(C(C)(C)C)nn2)cc1 [BDCAC-1]
- φ (quantum yield) ([1]; BDCAC library, Table 3): 1.5%
- λmax Absorp. ([2]; BDCAC library, Table 3): 469 nm
- λmax Emission ([2]; BDCAC library, Table 3): 580 nm

SMILES: Nc1ccc(C2=C3C=CC(N4CCCCC4)=[N+]3[B-](F)(F)n3c2ccc3-n2cc(C3CC3)nn2)cc1 [BDC-4]
- φ (quantum yield) ([1]; BDC library, Table 2): 0.16%
- λmax Absorp. ([2]; BDC library, Table 2): 475 nm
- λmax Emission ([2]; BDC library, Table 2): 590 nm

Results, then the molecule that gave them:

- φ (%) ([1]; MKCA compound library): 19.42%
- λmax Absorp. (nm) ([2]; absorbance maximum): 464 nm
- λmax Emission (nm) ([2]; fluorescence emission maximum): 562 nm
SMILES: COc1ccc(OC)c(CNC2=[N+]3C(=C(c4ccc(NC(=O)CCl)cc4)c4ccc(-n5cc(CO)nn5)n4[B-]3(F)F)C=C2)c1 [MKCA181-70]

- φ (%) ([1]; MKCA compound library): 21.65%
- λmax Absorp. (nm) ([2]; absorbance maximum): 462 nm
- λmax Emission (nm) ([2]; fluorescence emission maximum): 563 nm
SMILES: COc1ccc(OC)c(CNC2=[N+]3C(=C(c4ccc(NC(=O)CCl)cc4)c4ccc(-n5cc(CN(C)Cc6ccccc6)nn5)n4[B-]3(F)F)C=C2)c1 [MKCA181-18]

- φ (%) ([1]; MKAC compound library): 23.42%
- λmax Abs. (nm) ([2]; MKAC compound library, absorbance maximum): 465 nm
- λmax Em. (nm) ([2]; MKAC compound library, fluorescence emission maximum): 561 nm
SMILES: CCCC(C)c1cn(-c2ccc3n2[B-](F)(F)[N+]2=C(NCc4ccccc4OCC)C=CC2=C3c2ccc(NC(C)=O)cc2)nn1 (stereo not drawn) [MKAC103-3]

- φ (%) ([1]; MKCA compound library): 4.98%
- λmax Absorp. (nm) ([2]; absorbance maximum): 463 nm
- λmax Emission (nm) ([2]; fluorescence emission maximum): 573 nm
SMILES: O=C(CCl)Nc1ccc(C2=C3C=CC(N4CCCC4)=[N+]3[B-](F)(F)n3c2ccc3-n2cc(CCc3ccccc3)nn2)cc1 [MKCA215-19]

- φ (%) ([1]; MKCA compound library): 20.56%
- λmax Absorp. (nm) ([2]; absorbance maximum): 465 nm
- λmax Emission (nm) ([2]; fluorescence emission maximum): 562 nm
SMILES: COc1ccc(OC)c(CNC2=[N+]3C(=C(c4ccc(NC(=O)CCl)cc4)c4ccc(-n5cc(CC6CCCCC6)nn5)n4[B-]3(F)F)C=C2)c1 [MKCA181-8]

- φ (%) ([1]; MKCA compound library): 3.15%
- λmax Absorp. (nm) ([2]; absorbance maximum): 467 nm
- λmax Emission (nm) ([2]; fluorescence emission maximum): 581 nm
SMILES: CCCC(C)c1cn(-c2ccc3n2[B-](F)(F)[N+]2=C(N4CC(C)OC(C)C4)C=CC2=C3c2ccc(NC(=O)CCl)cc2)nn1 (stereo not drawn) [MKCA20-3]

- φ (%) ([1]; MKCA compound library): 21.53%
- λmax Absorp. (nm) ([2]; absorbance maximum): 462 nm
- λmax Emission (nm) ([2]; fluorescence emission maximum): 562 nm
SMILES: Cc1ccccc1CNC1=[N+]2C(=C(c3ccc(NC(=O)CCl)cc3)c3ccc(-n4cc(CN(C)Cc5ccccc5)nn4)n3[B-]2(F)F)C=C1 [MKCA101-18]

- φ (%) ([1]; MKCA compound library): 37.77%
- λmax Absorp. (nm) ([2]; absorbance maximum): 464 nm
- λmax Emission (nm) ([2]; fluorescence emission maximum): 563 nm
SMILES: CCOc1ccccc1CNC1=[N+]2C(=C(c3ccc(NC(=O)CCl)cc3)c3ccc(-n4cc(CC5CCCCC5)nn4)n3[B-]2(F)F)C=C1 [MKCA103-8]

- φ (%) ([1]; MKCA compound library): 4.60%
- λmax Absorp. (nm) ([2]; absorbance maximum): 462 nm
- λmax Emission (nm) ([2]; fluorescence emission maximum): 565 nm
SMILES: CCCc1cn(-c2ccc3n2[B-](F)(F)[N+]2=C(N4CCCC4)C=CC2=C3c2ccc(NC(=O)CCl)cc2)nn1 [MKCA215-48]

- φ (%) ([1]; MKCA compound library): 2.64%
- λmax Absorp. (nm) ([2]; absorbance maximum): 469 nm
- λmax Emission (nm) ([2]; fluorescence emission maximum): 587 nm
SMILES: CC1CN(C2=[N+]3C(=C(c4ccc(NC(=O)CCl)cc4)c4ccc(-n5cc(CO)nn5)n4[B-]3(F)F)C=C2)CC(C)O1 (stereo not drawn) [MKCA20-70]

- φ (%) ([1]; MKCA compound library): 36.22%
- λmax Absorp. (nm) ([2]; absorbance maximum): 464 nm
- λmax Emission (nm) ([2]; fluorescence emission maximum): 564 nm
SMILES: CCOc1ccccc1CNC1=[N+]2C(=C(c3ccc(NC(=O)CCl)cc3)c3ccc(-n4cc(C5CC5)nn4)n3[B-]2(F)F)C=C1 [MKCA103-4]
